Source: patent US11814363B2, “Morphic forms of danicopan” (Achillion Pharmaceuticals, Inc., priority 2018, dated 2023)
Converted amounts (≈) assume the structure as drawn. Where two headings read alike, the source gives them in different places.

How the values were obtained:
Format in all cases: physicochemical
[1] = Visual solubility estimate of amorphous Compound 1 in solvents; conditions: 40 °C, thermodynamic from solid
[2] = as above
Method: The solubility of amorphous Compound 1 was estimated in 14 solvents to facilitate the solvent selection for the crystallization study. The solubility of Compound 1 was visually estimated at room temperature (RT; ˜23° C.) by dosing small aliquots of solvent into a fixed amount of solid (˜10 mg) until the dissolution point or a maximum volume (1.7 mL) was reached.

[3] = Dynamic vapor sorption (DVS) analysis
[4] = Relative stability of hydrated Compound 1 forms vs water activity, PXRD; conditions: for water activity value (aw) at which the form is the stable hydrate: 25° C.
Method: The relative stability of hydrated Compound 1 Form II, Form IV, and Form V were studied at 25° C. and the results are shown in Table 6. […] Form V was determined to be the stable hydrate at aw=0.75, with […] the stable hydrate at aw=0.90. The water activity of the solvent mixture used for the crystallization process must be below 0.55 in order to obtain Form II consistently.

[5] = Physical stability of crystal forms on heating, drying or storage, PXRD
[6] = 102097-CR6, 2-propanol: 20 vol % Water, water activity 0.9
[7] = CR5, Acetonitrile: 10 vol % Water, water activity 0.75

## CC(=O)c1nn(CC(=O)N2C[C@H](F)C[C@H]2C(=O)Nc2cccc(Br)n2)c2ccc(-c3cnc(C)nc3)cc12 [Amorphous Compound 1]
[1]; heptane, organic solvent or mixture
  solubility: < 5.59 mg/mL
[1]; t-butyl methyl ether, organic solvent or mixture
  solubility: < 5.71 mg/mL
[1]; water
  solubility: < 5.59 mg/mL
[2]; 1,4-dioxane, 23 °C, organic solvent or mixture, thermodynamic from solid, 1,4-Dioxane, RT (~23° C.), visually estimated, read-out: Solubility at RT
  solubility: 98 to 392 mg/mL (≈ 169 to 675 mM)
[2]; 2-propanol, 23 °C, organic solvent or mixture, thermodynamic from solid, 2-Propanol, RT (~23° C.), visually estimated, read-out: Solubility at RT
  solubility: < 5.71 mg/mL
[2]; 2-propanol, 40 °C, organic solvent or mixture, thermodynamic from solid, 2-Propanol, 40° C., read-out: Solubility at 40° C.
  solubility: > 5.71 mg/mL
[2]; Dimethyl Sulfoxide, RT (~23° C.), visually estimated
  Solubility at RT: >452 mg/mL
[2]; Heptane, RT (~23° C.), visually estimated
  Solubility at RT: <5.59 mg/mL
[2]; Water, RT (~23° C.), visually estimated
  Solubility at RT: <5.59 mg/mL
[2]; acetone, 23 °C, organic solvent or mixture, thermodynamic from solid, Acetone, RT (~23° C.), visually estimated, read-out: Solubility at RT
  solubility: 121 to 484 mg/mL (≈ 208 to 834 mM)
[2]; acetonitrile, 23 °C, organic solvent or mixture, thermodynamic from solid, Acetonitrile, RT (~23° C.), visually estimated, read-out: Solubility at RT
  solubility: 98 to 392 mg/mL (≈ 169 to 675 mM)
[2]; chloroform, 23 °C, organic solvent or mixture, thermodynamic from solid, Chloroform, RT (~23° C.), visually estimated, read-out: Solubility at RT
  solubility: 92 to 368 mg/mL (≈ 159 to 634 mM)
[2]; dichloromethane, 23 °C, organic solvent or mixture, thermodynamic from solid, Dichloromethane, RT (~23° C.), visually estimated, read-out: Solubility at RT
  solubility: 99 to 396 mg/mL (≈ 171 to 682 mM)
[2]; dimethyl sulfoxide, 23 °C, organic solvent or mixture, thermodynamic from solid, Dimethyl Sulfoxide, RT (~23° C.), visually estimated, read-out: Solubility at RT
  solubility: > 452 mg/mL
[2]; ethyl acetate, 23 °C, organic solvent or mixture, thermodynamic from solid, Ethyl Acetate, RT (~23° C.), visually estimated, read-out: Solubility at RT
  solubility: 91 to 364 mg/mL (≈ 157 to 627 mM)
[2]; heptane, 23 °C, organic solvent or mixture, thermodynamic from solid, Heptane, RT (~23° C.), visually estimated, read-out: Solubility at RT
  solubility: < 6 mg/mL
[2]; methanol, 23 °C, organic solvent or mixture, thermodynamic from solid, Methanol, RT (~23° C.), visually estimated, read-out: Solubility at RT
  solubility: 48 to 96 mg/mL (≈ 82.7 to 165 mM)
[2]; t-Butyl Methyl Ether (MTBE), RT (~23° C.), visually estimated
  Solubility at RT: <5.71 mg/mL
[2]; t-butyl methyl ether (MTBE), 23 °C, organic solvent or mixture, thermodynamic from solid, t-Butyl Methyl Ether (MTBE), RT (~23° C.), visually estimated, read-out: Solubility at RT
  solubility: < 6 mg/mL
[2]; tetrahydrofuran, 23 °C, organic solvent or mixture, thermodynamic from solid, Tetrahydrofuran, RT (~23° C.), visually estimated, read-out: Solubility at RT
  solubility: 92 to 368 mg/mL (≈ 159 to 634 mM)
[2]; toluene, 23 °C, organic solvent or mixture, thermodynamic from solid, Toluene, RT (~23° C.), visually estimated, read-out: Solubility at RT
  solubility: < 5.35 mg/mL
[2]; toluene, 40 °C, organic solvent or mixture, thermodynamic from solid, Toluene, 40° C., read-out: Solubility at 40° C.
  solubility: > 5.35 mg/mL
[2]; water, 23 °C, water, thermodynamic from solid, Water, RT (~23° C.), visually estimated, read-out: Solubility at RT
  solubility: < 6 mg/mL
[3]; after DVS 0-90% RH
  solid form after the DVS experiment by PXRD: remained amorphous
[3]; from 0-90% RH
  water uptake (DVS): 4.0%

## CC(=O)c1nn(CC(=O)N2C[C@H](F)C[C@H]2C(=O)Nc2cccc(Br)n2)c2ccc(-c3cnc(C)nc3)cc12 [Compound 1, danicopan]
[4]; [6]
  PXRD Results 4 days/RT: Form III
  PXRD Results 8 days/RT: Form IH
[4]; CR1, 2-propanol, water activity 0
  PXRD Results 4 days/RT: Form II
[4]; CR2, EtOAc, water activity 0
  PXRD Results 4 days/RT: Form II
[4]; CR3, Methanol: 10 vol % Water, water activity 0.33
  PXRD Results 4 days/RT: Form II
[4]; CR4, 2-propanol: 5 vol % Water, water activity 0.55
  PXRD Results 4 days/RT: Form II
[4]; [7]
  PXRD Results 4 days/RT: Form V
  PXRD Results 8 days/RT: Form V

## CC(=O)c1nn(CC(=O)N2C[C@H](F)C[C@H]2C(=O)Nc2cccc(Br)n2)c2ccc(-c3cnc(C)nc3)cc12 [Form III]
[5]; 70° C. under vacuum for 1 hour
  crystal form after drying: did not change the crystal-form
[4]
  water activity value (aw) at which the form is the stable hydrate: 0.90

## CC(=O)c1nn(CC(=O)N2C[C@H](F)C[C@H]2C(=O)Nc2cccc(Br)n2)c2ccc(-c3cnc(C)nc3)cc12 [Form II]
[5]; heated past dehydration endotherm, returned to room temperature
  crystal form by PXRD after heating past the dehydration endotherm: does not change the crystal-form
[3]; DVS isotherm
  water content of the hydrate by DVS: 2.7-4.0%
[3]; reversible hydration
  critical RH step (DVS): 30 % RH
[4]
  water activity value (aw) at which the form is the stable hydrate: ≤ 0.55

## CC(=O)c1nn(CC(=O)N2C[C@H](F)C[C@H]2C(=O)Nc2cccc(Br)n2)c2ccc(-c3cnc(C)nc3)cc12 [Form IV]
[5]; sealed vial
  physically stable by PXRD, time: at least 10 days

## CC(=O)c1nn(CC(=O)N2C[C@H](F)C[C@H]2C(=O)Nc2cccc(Br)n2)c2ccc(-c3cnc(C)nc3)cc12 [Form VI]
[5]; overnight on a PXRD holder, ambient
  PXRD pattern after sitting overnight: closely resembles Form V

## CC(=O)c1nn(CC(=O)N2C[C@H](F)C[C@H]2C(=O)Nc2cccc(Br)n2)c2ccc(-c3cnc(C)nc3)cc12 [Form V]
[4]
  water activity value (aw) at which the form is the stable hydrate: 0.75
